From patent US7812142B2, “Pentose derivatives as anti-hyperglycemic drugs” (Yissum Research Development Company of the Hebrew …, priority 2002, dated 2010)

How the values were obtained:
C2 myotubes = test: dGlc uptake assay in C2 myotubes; assay type: cell-based, mouse
Method: The time-course of D-xylose effect in two types of skeletal muscle cells (L8 myocytes and C2 myotubes) was studied. L8 myocytes and C2 myotubes preconditioned in 20 mM glucose were incubated with 20 mM xylose. After 90 min the cells were washed and incubated with 20 mM glucose, and subjected to a deoxyglucose dGlc uptake assay (14).
The inventors have also measured the effect of different doses of D-xylose in C2 myotubes. C2 myotubes preconditioned with 20 mM glucose received fresh medium containing 20 mM glucose or increasing concentrations of D-xylose. Standard dGlc uptake assay was performed after 1 hr incubation. […] D-xylose augmented the rate of hexose transport ˜2-fold within 1-2 hr; half-maximal stimulation was observed within 20-30 min, as shown in FIG. 2.
However, in the above experiments the cells were exposed to D-xylose after removal of the conditioning glucose concentration. […] The inventors therefore added 20 mM D-xylose to C2 myotubes in the presence of 8 or 16 mM glucose and followed its effect.
It has shown before by the inventors of the present invention that deoxyglucose (dGlc) depresses the hexose transport system in myocytes and that a subsequent incubation with low (even no) glucose fails to reverse this effect of dGlc [Sasson, S et al (1997)]. The inventors have therefore measured the effect of D-xylose on rate of hexose transport following treatment with dGlc. In one experiment, C2 myotubes preconditioned with 2 mM glucose received fresh medium containing 2 mM dGlc. A portion of the cells were washed after 30 min and received 20 MM D-xylose or 2 mM D-glucose, and subjected to a dGlc uptake assay at different time points. In another experiment, L8 myocytes preconditioned with 2 mM glucose were washed and incubated with 2 mM xylose or 2 mM dGlc. A portion of the cells were washed again after 2 hr and incubated with 20 mM xylose, and subjected to a dGlc uptake assay at different time points.
(§1) Uptake assay of the tritiated glucose analogue, 2-deoxy-D-glucose, is routinely performed as described in [Sasson, S. and Cerasi, E. (1986) J. Biol. Chem. 261, 16827-16833].

[1] = Half-life of D-xylose measured in rats; details: rat, in vivo
[2] = system: isolated rat soleus muscles; test: dGlc uptake in isolated soleus muscles; assay type: cell-based; details: 3 hr, 20 mM glucose with 20 mM xylose (FIG. 9)
Method: FIG. 9: Effect of D-xylose on dGlc uptake in soleus muscles. Soleus muscles were isolated from Sabra male albino rats and incubated for 3 hr with 20 mM glucose in the absence or the presence of 20 mM xylose. The muscles were washed and subjected to dGlc uptake assay without or with insulin (500 nM). Mean±SEM (n=3).
Some experiments with isolated rat soleus muscles were performed, in order to exclude cell-line specific effects, and to assess the physiologic relevance of the findings of the present invention. Soleus muscles were isolated from Sabra male albino rats and incubated for 3 hr with 20 mM glucose in the absence or the presence of 20 mM xylose. The muscles were washed and subjected to dGlc uptake assay without or with insulin (500 nM).
The procedure follows that described before in [Sasson et al (1987), Diabetes 36, 1041-46].

PKB = PKB phosphorylation immunoblot in L6 myotubes; assay type: cell-based, rat; details: 23.0 mM glucose; 100 nM insulin, 20 mM xylose, 5 mM EH-114 or 250 μM EH-40, up to 24 hrs (FIG. 11B)
Method: FIG. 11B: Effects of insulin D-xylose and xylose derivatives on PKB phosphorylation. L6 myotubes were maintained at 5.5 mM or 23.0 mM glucose. The latter were treated with 100 nM insulin, 20 mM xylose, 5 mM EH-114 or 250 μM EH-40 up to 24 hrs. At the indicated times treated myotubes were collected, homogenized and lysed and the soluble protein fraction was isolated. The control myotubes were collected at the end of the 24 hr incubation period. Equal amounts of proteins of the various treated myotubes were separated on SDS-PAGE and immunoblotted with a specific antibody against phospho-Axt1/PKBα (Ser473). In order to test whether xylose derivative activate insulin transduction elements downstream of PI3K, the inventors tested the state of PKB phosphorylation, as shown in FIG. 11B.

L6 myotubes = test: dGlc uptake assay in L6 myotubes; assay type: cell-based, rat; details: 60 μM inhibitor, 23.0 mM glucose (FIG. 11A); EH-40 data not shown
Method: FIG. 10: Western blot depicting effect of 3-O-propyl-D-xylose (EH-114), and 1,3-O-dimethylxylopyranoside (EH-101) on the total cell content and plasma membrane abundance of GLUT-4 in the absence or presence of insulin. L6 myotubes were maintained for 48 hr at 23 mM Glucose. The cells were than washed and received fresh medium containing the indicated additions and incubated for additional […]. Insulin was added during the last 30 min of incubation before the dGlc uptake assay.
FIG. 11A: Effect of LY-249002, a PI3-kinase inhibitor, on insulin, D-xylose, EH-101 and EH-114-mediated glucose uptake. L6 myotubes were treated as described in the legend to FIG. 10. The glucose concentration in the culture medium was 23.0 mM. The concentration of LY-294002 was 60 μM. At the end of incubation the cells were taken for the standard dGlc uptake assay. Mean±SEM, n=3.
GLUT-1 and GLUT-4 mediate glucose entry into L6 myotubes. It is established that GLUT-4 is translocated effectively and rapidly to the plasma membrane upon insulin treatment. The inventors looked at the effect of 3-O-propyl-D-xylose EH-114) and 1,3-O-dimethylxylopyranoside (EH-101) on the total cell content and plasma membrane abundance of these transporters in the absence or presence of insulin. L6 myotubes were maintained at 5.0 or 23.0 mM glucose for 48 hr and EH-114 and EH-101 were present during the last 24 hr. The cells were then taken for the standard [^3H]-2-deoxy-D-glucose uptake assay and for the biotinylation procedure for determining the amount of GLUT-1 and GLUT-4 in the plasma membrane. High glucose levels decreased the hexose transport rate by ˜50%. Insulin augmented the transport nearly 2-fold in both cases. EH-114 and EH-101 increased the transport rate 2-3-fold in the absence of insulin. Together with insulin the uptake rate was increased nearly 3-fold.
The inventors also tested the hypothesis that the active D-xylose derivatives augment the hexose transport capacity in L6 myotubes by translocating GLUT-4 to the plasma membrane not via the common insulin-regulated pathway. For this experiment, a selective inhibitor of the enzyme PI3-kinase, LY-249002, which is a key enzyme in the cellular transduction mechanism of insulin, was utilized. […] These findings also agree well with the longer onset of action of these derivatives as compared to the rapid action of insulin. Similar results were obtained when LY-249002 was present together with the derivatives throughout the entire incubation period.
as §1

half-life [1]: 30 to 60 min | effect of PI3-kinase inhibitor LY-249002 on the substance's stimulation of hexose transport (L6 myotubes): failed to affect
SMILES: O=C[C@H](O)[C@@H](O)[C@H](O)CO [D-xylose]
time to half-maximal stimulation (C2 myotubes): 20 to 30 min | rate of hexose transport downregulated by dGlc (C2 myotubes; 20 mM D-xylose after 30 min 2 mM dGlc (FIG. 4A)): increased the rate of hexose transport | hexose transport in the presence of glucose (C2 myotubes; 20 mM D-xylose with 8 or 16 mM glucose (FIG. 3)): augment hexose transport | effect of pentoses on the rate of hexose transport (C2 myotubes; 20 mM pentose, preconditioned with 20 mM glucose (FIG. 7)): most effective pentose | rate of glucose transport (C2 myotubes; 20 mM xylose, cells preconditioned in 20 mM glucose (FIG. 1)): increases the rate of glucose transport | concentration at which maximal effect is obtained (C2 myotubes; dose-response, 1 hr incubation, preconditioned with 20 mM glucose (FIG. 2)): 20 mM | augmentation of the rate of hexose transport (C2 myotubes; within 1-2 hr): ~2 fold | increase of the rate of dGlc uptake [2]: 42% | PKB phosphorylation (PKB): failed to induce significant phosphorylation
